Molecules are shown by their SMILES. pIC50: −log10 of the molar value. The source made the active and inactive calls. No cut-off for these calls is given here.

Test [1] deals with T1, Protein-S-isoprenylcysteine O-methyltransferase (Homo sapiens, UniProt O60725). Nature of the test: Inhibition of Icmt up to 100 uM after 60 mins using [3H]biotin as substrate by artifact assay.
The target in test [2] is T1, Protein-S-isoprenylcysteine O-methyltransferase. Nature of the test: Inhibition of Icmt using [3H]SAM as substrate.

T1 sequence (O60725 whole entry): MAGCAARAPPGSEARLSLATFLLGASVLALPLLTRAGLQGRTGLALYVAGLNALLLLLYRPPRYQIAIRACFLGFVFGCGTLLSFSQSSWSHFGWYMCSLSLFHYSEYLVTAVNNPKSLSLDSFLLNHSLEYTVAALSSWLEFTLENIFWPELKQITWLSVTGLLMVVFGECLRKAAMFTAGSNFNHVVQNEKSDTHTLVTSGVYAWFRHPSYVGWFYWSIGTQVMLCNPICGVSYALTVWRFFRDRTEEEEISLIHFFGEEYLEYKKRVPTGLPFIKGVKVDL

Broadly, the pIC50 is the negative decadic logarithm of the IC50, by convention in mol/L. A low value points to a high IC50. With `COc1ccc(/C=C/C(=O)NCCc2cc(Br)c(OCCCN)c(Br)c2)cc1Br` [APLYSAMINE 6], in test [1], the result was inactive. The molecule also had a negative-log IC50 (pIC50) in test [2] of 4.85.

These data come from ChEMBL document CHEMBL1157380, “Aplysamine 6, an alkaloidal inhibitor of Isoprenylcysteine carboxyl methyltransferase from the sponge Pseudoceratina sp” (J Nat Prod, 2008).
